Target: interaction between GST-hMDM2 (1-188) and biotinylated-p53 (1-83) (Homo sapiens (Human), UniProt Q00987)
Assay: biochemical

Sequence of interaction between GST-hMDM2 (1-188) and biotinylated-p53 (1-83) (Q00987 1-188): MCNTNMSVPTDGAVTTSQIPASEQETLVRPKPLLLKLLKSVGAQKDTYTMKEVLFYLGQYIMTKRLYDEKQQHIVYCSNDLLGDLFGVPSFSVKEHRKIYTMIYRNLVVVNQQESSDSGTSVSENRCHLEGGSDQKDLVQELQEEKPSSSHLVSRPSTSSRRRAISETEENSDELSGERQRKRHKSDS

CC[C@@H](CNS(=O)(=O)c1cccnc1)N1C(=O)[C@@](C)(CC(=O)O)C[C@H](c2cccc(Cl)c2)[C@H]1c1ccc(Cl)cc1 [Example 196, 2-((3R,5R,6S)-5-(3-chlorophenyl)-6-(4-chlorophenyl)-3-methyl-2-oxo-1-((S)-1-(pyridine-3-sulfonamido)butan-2-yl)piperidin-3-yl)acetic acid]
IC50: < 1 nM

— patent US9296736B2 (priority 2010, dated 2016)
